How the values were obtained:
[1] = molecular target: T1, bovine serum albumin (BSA) (Bos taurus, UniProt P02769); test: uSTA saturation transfer NMR, Bloch-McConnell fit; assay type: binding
T1 construct: gene ALB; commercial native protein (Sigma Aldrich), non-modified

[2] = molecular target: T2, E. coli trehalose repressor TreR (Escherichia coli, UniProt P36673); test: uSTA saturation transfer NMR; assay type: binding; settings: weak ligand
T2 sequence (P36673 1-315): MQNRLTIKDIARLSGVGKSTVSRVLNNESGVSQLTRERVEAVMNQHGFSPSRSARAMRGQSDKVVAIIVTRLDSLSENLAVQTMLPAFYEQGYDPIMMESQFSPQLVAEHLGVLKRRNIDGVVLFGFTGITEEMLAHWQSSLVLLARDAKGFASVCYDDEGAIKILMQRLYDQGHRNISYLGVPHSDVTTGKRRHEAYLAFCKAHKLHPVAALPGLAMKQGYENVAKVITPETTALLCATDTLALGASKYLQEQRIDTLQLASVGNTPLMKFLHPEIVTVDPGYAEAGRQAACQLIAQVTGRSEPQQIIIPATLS

T1 sequence (P02769 25-607): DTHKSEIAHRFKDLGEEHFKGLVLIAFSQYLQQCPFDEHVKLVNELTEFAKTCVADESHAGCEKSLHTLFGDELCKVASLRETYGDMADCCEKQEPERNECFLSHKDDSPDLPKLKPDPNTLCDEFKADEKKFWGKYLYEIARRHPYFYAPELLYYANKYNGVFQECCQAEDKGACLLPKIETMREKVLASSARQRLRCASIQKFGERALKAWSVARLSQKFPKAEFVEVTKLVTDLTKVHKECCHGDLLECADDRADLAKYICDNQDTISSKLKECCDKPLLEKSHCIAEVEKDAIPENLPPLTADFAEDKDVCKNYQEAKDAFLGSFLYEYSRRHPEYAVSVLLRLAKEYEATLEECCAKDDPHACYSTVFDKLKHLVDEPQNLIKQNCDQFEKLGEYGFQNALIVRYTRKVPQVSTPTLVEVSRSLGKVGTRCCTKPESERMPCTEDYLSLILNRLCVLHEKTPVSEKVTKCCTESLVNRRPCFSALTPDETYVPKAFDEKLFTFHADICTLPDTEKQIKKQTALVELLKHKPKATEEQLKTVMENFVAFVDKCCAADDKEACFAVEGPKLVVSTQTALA

SMILES | Kd [1] | transfer efficiency [2]
N[C@@H](Cc1c[nH]c2ccccc12)C(=O)O [L-tryptophan] | 38 ± 15 µM | –
OC[C@H]1O[C@H](O[C@H]2O[C@H](CO)[C@@H](O)[C@H](O)[C@H]2O)[C@H](O)[C@@H](O)[C@@H]1O [trehalose] | – | trehalose (Tre) binds only weakly to trehalose repressor protein TreR

— paper doi:10.1101/2021.04.14.439284v2 (biorxiv, 2021)
